Measurements published in article PMC5962642, “Dynamic imaging of adaptive stress response pathway activation for prediction of drug induced liver injury” (Archives of Toxicology, 2018).

What was measured:
[1] = two classes made from the FDA DILI-concern labeling
[2] = ref livertox.nih.gov database; cited from earlier work
[3] = C-max obtained from FDA or literature; ref per compound (FDA, Dailymed, Xu, O’Brien, Khetani, Regenthal, Gustafsson, Dawson, Ogutu, Patel, Schmidt, Ravic, Keisu, Hu, Wagner); cited from earlier work
[4] = ref Chen et al. [2016], cited from earlier work; for DILI con. (DILI-concern labeling): FDA DILI labeling; for Hepa. (hepatotoxicity class): FDA labeling in eight classes of hepatotoxicity
[5] = system: Srxn1-GFP (oxidative stress); assay: HepG2 Srxn1-GFP BAC reporter, live cell confocal imaging (oxidative stress); format: cell-based, Human; settings: for Srxn1-GFP reporter response: HepG2 BAC-GFP, 24 h live imaging, 1-100 C-max; for Srxn1-GFP response at the intensity feature level (cell population): GFP intensity over the single cell population
Method: Human hepatoma HepG2 cells were acquired from ATCC (clone HB8065). HepG2 Srxn1, DDIT3 (CHOP), CDKN1A (p21) and ICAM1 BAC GFP reporter cell lines were previously established and characterized (Wink et al. [2017]). HepG2 BAC GFP reporters were maintained and exposed to drugs in DMEM high glucose supplemented with 10% (v/v) FBS, 25 U/mL penicillin and 25 µg/mL streptomycin. The cell lines were used between passage 5 and 25. For live cell imaging, the cells were seeded in Greiner black µ-clear 384 wells plates, at 8000 cells per well.
Accumulation of GFP levels, propodium iodide (PI) and Hoechst staining was monitored using a Nikon TiE2000 confocal laser microscope (lasers 540, 488 and 408 nm), equipped with an automated stage and perfect focus system at 37 °C with humidified atmosphere and 5% CO2/air mixture. All imaging was similar as previously described^5. Each 384-well plate contained one reporter cell line, which was exposed to all the compounds used in the screen at one certain concentration (1, 5, 10, 50 or 100 Cmax); for each concentration at least two replicates were imaged per reporter cell line. For the ICAM1-GFP reporter experiments, cells were first exposed for 8 h to compound only; next, TNFα was added to all wells, up to a final concentration of 10 ng/mL. Directly after TNFα treatment the live cell imaging was started.
Quantitative image analysis was performed with CellProfiler version 2.1.1 (Kamentsky et al. [2011]) with an in house developed CellProfiler module implementing the watershed masked algorithm for segmentation (Yan and Verbeek [2012]; Wink et al. [2017]). Image analysis results were stored as HDF5 files. Data analysis, quality control and graphics were performed using the in house developed R package h5CellProfiler (manuscript in preparation). For each reporter hourly intensity levels of the GFP signal, the nuclear Hoechst33342 intensity levels and at 24 h the PI staining were measured at the single cell level. In addition, cell numbers, nuclei size and cell motility were measured.
GFP intensity cell population means were calculated. In addition, for each plate the cell population mean GFP intensity of the DMSO treated cells was calculated to determine background control values. Per plate, the single cells that had values above the 2X mean, 3X mean were counted resulting in GFP positive fraction measures. For ICAM1, the background control values consisted of DMSO conditions treated with TNFα, and the single cells with values above, as well as below background values were counted. Due to the non-symmetric distribution of ICAM1 cell population GFP intensities, the interquartile range (IQR) was used to count the number of cells 1.5, 2 and 3 times above and below the TNFα IQR control values (Supplemental Fig. 1).
The maximum values over time of the scaled intensity levels and positive GFP fractions were selected for the concentration response curves. These values were fit to a four parameter log-logistic model using the drc package (Ritz et al. [2015]). BMC values were calculated as the concentration at which + 0.25 (and − 0.25 for ICAM1) absolute increase from the initial response values occurred (Fig. 5a).

| Structure (SMILES) | Severity class [1] | Metab (metabolic potential) [2] | Cmax [3] [µM] | DILI con. (DILI-concern labeling) [4] | Hepa. (hepatotoxicity class) [4] | Srxn1-GFP reporter response [5] | Srxn1-GFP response at the intensity feature level (cell population) [5] | earliest concentration with Srxn1 response, %GFP positive marker ([5]; multiples of C-max) [C-max] |
| --- | --- | --- | --- | --- | --- | --- | --- | --- |
| CSc1ccc2c(c1)N(CCC1CCCCN1C)c1ccccc1S2 (stereo not shown) [Thiondazine] | Non-sev. | YES | 0.55 | – | – | – | – | – |
| Cc1ccc(C(=O)c2cc(O)c(O)c([N+](=O)[O-])c2)cc1 [Tolcapone] | Sev. | YES | 22 | Most-DC | 8 | – | – | – |
| CCc1ccc(CCOc2ccc(CC3SC(=O)NC3=O)cc2)nc1 (stereo not shown) [Pioghtazone] | Non-sev. | – | 2.95 | Less-DC | 3 | – | – | – |
| CN1C(=O)CCS(=O)(=O)C1c1ccc(Cl)cc1 (stereo not shown) [Chlormezanone] | Sev. | – | 10.6 | Most-DC | 8 | – | – | – |
| OC(CCN1CCCC1)(c1ccccc1)C1CCCCC1 (stereo not shown) [Procychdine] | Non-sev. | – | – | – | – | – | – | – |
| CC1=C(CC(=O)O)c2cc(F)ccc2/C1=C\c1ccc([S+](C)[O-])cc1 (stereo not shown) [Sulindac] | – | YES | 32 | Most-DC | 8 | activation | – | – |
| Oc1ncnc2[nH]ncc12 [Allopunnol] | Sev. | – | 13.8 | Most-DC | 8 | – | – | – |
| CCOC(=O)/C=C\C(=O)OCC [Diethylmaleate] | – | – | – | – | – | strong inducers | – | – |
| CC(=O)N1CCN(c2ccc(OCC3COC(Cn4ccnc4)(c4ccc(Cl)cc4Cl)O3)cc2)CC1 (stereo not shown) [Ketoconazole] | – | – | 6.59 | Most-DC | 8 | – | no Srxn1-response | 50 |
| NC[C@H]1O[C@H](O[C@H]2[C@H](O)[C@@H](O[C@H]3O[C@H](CO)[C@@H](O)[C@H](N)[C@H]3O)[C@H](N)C[C@@H]2N)[C@H](O)[C@@H](O)[C@@H]1O [Kanamycin] | Non-sev. | – | 60.1 | – | – | – | – | – |
| C[N+](C)(C)CC(=O)O [Betaine] | Non-sev. | – | 940 | No-DC | 1 | – | – | – |
| CC(C)NNC(=O)c1ccncc1 [Iboniazid] | Sev. | YES | 76.6 | Most-DC | 8 | – | – | – |
| NC(N)=Nc1nc(CSCCC(N)=NS(N)(=O)=O)cs1 [Famotidine] | – | YES | 0.308 | Less-DC | 3 | – | – | – |
| CC(C(=O)O)c1ccc(-c2ccccc2)c(F)c1 (stereo not shown) [Flurbiprofen] | – | YES | 57.3 | Amb.-DC | 3 | – | – | – |
| Br.COc1ccc2c(c1)[C@]13CCCC[C@@H]1[C@H](C2)N(C)CC3 [Dextromethorphan hbr] | Non-sev. | – | 0.022 | No-DC | – | – | – | – |
| COc1cc(NC(C)CCCN)c2ncccc2c1 (stereo not shown) [Primaquine] | Non-sev. | – | – | No-DC | 1 | – | – | – |
| CCC1(c2ccccc2)C(=O)NC(=O)NC1=O [Phenobarbital] | Non-sev. | – | 146 | – | 3 | – | – | – |
| C[N+](C)(C)CCOC(=O)CCC(=O)OCC[N+](C)(C)C [Succinylcholine] | Non-sev. | – | 138 | No-DC | 1 | – | – | – |
| CN(C)C/C=C(/c1ccc(Br)cc1)c1cccnc1 [Zimehdine] | Sev. | – | – | Most-DC | 8 | – | – | – |
| Nc1ncnc2c1ncn2CCOCP(=O)(O)O [Adefovir] | Non-sev. | – | 0.085 | Less-DC | 2 | – | – | – |
| CCOC(=O)[C@H](CCc1ccccc1)N[C@@H](C)C(=O)N1CCC[C@H]1C(=O)O [Enalapril] | – | YES | 0.4 | Less-DC | 7 | – | – | – |
| CC[N+](C)(C)c1cccc(O)c1 [Edrophonium] | Non-sev. | – | 60.2 | – | 1 | – | – | – |
| CN(C)CCCN1c2ccccc2Sc2ccc(Cl)cc21 [Chlorpromazine] | – | YES | 0.94 | Less-DC | 2 | – | would not have been defined as positive | – |
| O=C1NC(=O)C(c2ccccc2)(c2ccccc2)N1 [Phenytoin] | – | YES | 21.7 | Most-DC | 8 | – | – | – |
| CC(=O)Nc1ccc(O)cc1 [Acetaminophen] | – | YES | – | – | – | activation | – | – |
| CCN(CC)C(=O)/C(C#N)=C/c1cc(O)c(O)c([N+](=O)[O-])c1 [Entacapone] | Non-sev. | YES | 3.93 | Less-DC | 1 | – | – | – |
| CCC1(c2ccccc2)C(=O)NCNC1=O [Primidone] | – | YES | 4.67 | – | 1 | – | – | – |
| C[C@H]1O[C@H](O[C@H]2[C@H](O)[C@@H](O)[C@@H](O[C@H]3[C@H](O)[C@@H](O)C(O)O[C@@H]3CO)O[C@@H]2CO)[C@H](O)[C@@H](O)[C@@H]1N[C@H]1C=C(CO)[C@@H](O)[C@H](O)[C@H]1O (stereo partly shown) [Acarbose] | Sev. | – | 0.15 | – | – | – | – | – |
| Cc1c(C)c2c(c(C)c1O)CCC(C)(COc1ccc(CC3SC(=O)NC3=O)cc1)O2 (stereo not shown) [Troghtazone] | Sev. | YES | – | Most-DC | 8 | – | – | – |
| NC(=O)c1ncn([C@@H]2O[C@H](CO)[C@@H](O)[C@H]2O)n1 [Ribavirin] | – | YES | 2.61 | Amb.-DC | – | – | – | – |
